Measurements taken from publication PMC12257413, “Discovery of a Novel sp^3‑Rich M1 Positive Allosteric Modulators (PAMs) Chemotype via Scaffold Hopping” (ACS Medicinal Chemistry Letters, 2025).

Molecular target: T1, rat muscarinic receptor subtype 1 (M1) (Rattus norvegicus, UniProt P08482)
T1 construct: expressed in transfected cells
T1 sequence (P08482 1-460): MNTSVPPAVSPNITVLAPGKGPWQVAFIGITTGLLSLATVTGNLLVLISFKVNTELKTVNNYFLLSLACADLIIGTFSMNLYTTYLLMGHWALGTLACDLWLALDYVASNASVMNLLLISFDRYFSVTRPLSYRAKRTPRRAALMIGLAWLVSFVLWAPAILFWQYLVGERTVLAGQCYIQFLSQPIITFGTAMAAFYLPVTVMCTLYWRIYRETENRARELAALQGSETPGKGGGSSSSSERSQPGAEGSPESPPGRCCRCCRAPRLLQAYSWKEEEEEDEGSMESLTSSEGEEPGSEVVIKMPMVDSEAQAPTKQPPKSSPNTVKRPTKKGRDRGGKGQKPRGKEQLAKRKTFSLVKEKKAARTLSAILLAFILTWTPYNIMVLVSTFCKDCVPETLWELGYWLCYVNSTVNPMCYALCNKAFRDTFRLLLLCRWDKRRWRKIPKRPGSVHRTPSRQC
Assay: Calcium mobilization assay in rM1-CHO cells, PAM activity with EC20 acetylcholine
Assay type: cell-based
Details: for EC50: read-out: rM1 pEC50 ± SEM (converted)
Protocol: page 2: Procedures for Biological Experiments Calcium mobilization assays: To measure the functional activity of positive allosteric modulator (PAM) compounds in a cellular assay, human or rat muscarinic receptor subtype 1 (M1) was stably expressed in the Chinese hamster ovary (CHO) cells to evoke an increase in intracellular calcium to an EC20 concentration of acetylcholine (ACh) agonist. The stable M1-CHO cells were cultured in F12 medium containing 10% fetal bovine serum, 20 mM HEPES, 100 units/mL antibiotics/antimycotic, 0.5 mg/ml G418. All reagents used were from Life Technologies (Carlsbad, CA) unless otherwise noted. Briefly, the day before the assay, stable M1-CHO cells (15,000 cells/20 μL/well) were plated in black-walled, clear-bottomed, 384 well plates (Greiner Bio-One, Monroe, NC) in the culture medium without G418, and then incubated overnight at 37 °C in the presence of 5% CO2. The next day, calcium assay buffer (Hank’s balanced salt solution (HBSS), 20 mM HEPES, 2.5 mM Probenecid, 4.16 mM sodium bicarbonate (Sigma-Aldrich, St. Louis, MO) was prepared to dilute […] calcium indicator dye. […] curves in DMSO using the Bravo Liquid Handler (Agilent, Santa Clara, CA), transferred to a 384 well daughter plates using an Echo acoustic liquid handler (Beckman Coulter, Indianapolis, Indiana), and diluted in assay Buffer to a 2X final concentration. The agonist plates were prepared using acetylcholine (ACh, Sigma-Aldrich, St. Louis, MO) concentrations for the EC20 and ECMAX responses by diluting in assay buffer to a 5X final concentration. The 2X dye solution (2.3 µM) was prepared by mixing a 2.3 mM Fluo-4-AM stock in DMSO with 10% (w/v) pluronic acid F- 127 in a 1:1 ratio in assay buffer. Using a microplate washer (BioTek, Winooski, VT), cells were washed with assay buffer for 3 times to remove medium. After the final wash, 20 μL of assay buffer remained in the cell plates. Immediately, 20 μL of the 2X dye solution (final 1.15 µM) was added to each well of the cell plate using a Multidrop Combi dispenser (Thermo Fisher, Waltham, MA). After cells were incubated with the dye solutions for 45 min at 37 °C in the presence of 5% CO2, the dye solutions were removed and replaced with assay buffer using a microplate washer, leaving 20 μL of assay buffer in the cell plate. The compound, agonist, and cell plates were placed inside the Functional Drug Screening System uCell (FDSS uCell, Hamamatsu, Japan) to measure the calcium flux. The triple add protocol was used to measure Ca kinetics; Compound, ACh for EC20, and ACh for ECMAX adds in an order. Briefly, after establishment of a fluorescence baseline S2 page 3: for 2 seconds (excitation, 480 nm; emission, 530 nm), first add occurred by adding 20 µL of test compound to the cells, and the response was measured for 140 seconds. This is followed by second add; 10 µL (5X) of an EC20 concentration of ACh agonist was added to the cells, and the response of the cells was measured for 125 seconds. Immediately, the third add occurred by adding 12 ul assay buffer or 5X of an EC max concentration of ACh and the response of the cells was measured for 90 seconds. Assay buffer was added to the wells that incubated with compounds followed by EC20 concentration of ACh. Agonists containing ECmax concentration of ACh were added to the wells that incubated with DMSO and assay buffer from the 1st and 2nd adds to measure maximum Ca responses (ECmax). Calcium fluorescence was recorded as fold over basal fluorescence and raw data were normalized to the maximal response to ACh agonist. […]

Compound	rM1 %ACh Max ± SEM	EC50
Cn1cc(-c2ccc(Cc3cc(C(=O)N[C@H]4CCCC[C@@H]4O)nn3C3CCCC3)cc2)cn1 [17k]	83 ± 2.8 %ACh Max	490 nM
Cn1cc(-c2ccc(Cc3cc(C(=O)N[C@H]4CCOC[C@@H]4O)nn3C3CCCC3)cc2)cn1 [17g]	83 ± 4.1 %ACh Max	347 nM
